According to PubChem BioAssay AID330 (DTP/NCI, 2004):
Values joined by “and” are separate entries in the source; they are usually repeats but may differ in a detail not shown here. Equal values may be shown once. Inconclusive results and toxic doses are left out. Peptide text beside a SMILES is read from it. * marks the point of attachment. Cbz = O=C(OCc1ccccc1)*

System: P388 leukemia ip, CD2F1 mice, survival T/C
Experiment: NCI In Vivo Anticancer Drug Screen. Data for tumor model P388 Leukemia (intraperitoneal) in CD2F1 (CDF1) mice
Details: endpoint: median survival time, higher = longer survival
Procedure, shortened: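 Mice carrying the transplanted tumor received test compound or vehicle. Survival was recorded in each group, and the value is the treated-group measurement divided by that of the vehicle-treated control group.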

[1] = dose: 6.25 mg/kg/injection, schedule: Q01DX009 (ip), vehicle: Klucel (hydroxypropylcellulose) (HPC)
[2] = dose: 50.0 mg/kg/injection, schedule: Q01DX005 (ip), vehicle: Klucel (hydroxypropylcellulose) (HPC)
[3] = dose: 100.0 mg/kg/injection, schedule: Q01DX005 (ip), vehicle: Klucel (hydroxypropylcellulose) (HPC)
[4] = dose: 200.0 mg/kg/injection, schedule: Q01DX005 (ip), vehicle: Klucel (hydroxypropylcellulose) (HPC)
[5] = dose: 50.0 mg/kg/injection, schedule: Q01DX009 (ip), vehicle: saline
[6] = dose: 100.0 mg/kg/injection, schedule: Q01DX009 (ip), vehicle: saline
[7] = dose: 200.0 mg/kg/injection, schedule: Q01DX009 (ip), vehicle: saline
[8] = dose: 100.0 mg/kg/injection, schedule: Q01DX009 (ip), vehicle: saline with Tween-80
[9] = dose: 200.0 mg/kg/injection, schedule: Q01DX009 (ip), vehicle: saline with Tween-80
[10] = dose: 50.0 mg/kg/injection, schedule: Q01DX009 (ip), vehicle: saline with Tween-80
[11] = dose: 50.0 mg/kg/injection, schedule: Q01DX009 (ip), vehicle: Klucel (hydroxypropylcellulose) (HPC)
[12] = dose: 100.0 mg/kg/injection, schedule: Q01DX009 (ip), vehicle: Klucel (hydroxypropylcellulose) (HPC)
[13] = dose: 200.0 mg/kg/injection, schedule: Q01DX009 (ip), vehicle: Klucel (hydroxypropylcellulose) (HPC)
[14] = dose: 50.0 mg/kg/injection, schedule: Q01DX005 (ip), vehicle: saline with Tween-80
[15] = dose: 100.0 mg/kg/injection, schedule: Q01DX005 (ip), vehicle: saline with Tween-80
[16] = dose: 200.0 mg/kg/injection, schedule: Q01DX005 (ip), vehicle: saline with Tween-80
[17] = dose: 60.0 mg/kg/injection, schedule: Q01DX005 (ip), vehicle: Klucel (hydroxypropylcellulose) (HPC)
[18] = dose: 120.0 mg/kg/injection, schedule: Q01DX005 (ip), vehicle: Klucel (hydroxypropylcellulose) (HPC)
[19] = dose: 240.0 mg/kg/injection, schedule: Q01DX005 (ip), vehicle: Klucel (hydroxypropylcellulose) (HPC)
[20] = dose: 12.5 mg/kg/injection, schedule: Q01DX009 (ip), vehicle: saline with Tween-80
[21] = dose: 25.0 mg/kg/injection, schedule: Q01DX009 (ip), vehicle: Klucel (hydroxypropylcellulose) (HPC)
[22] = dose: 60.0 mg/kg/injection, schedule: Q01DX005 (ip), vehicle: saline with Tween-80
[23] = dose: 120.0 mg/kg/injection, schedule: Q01DX005 (ip), vehicle: saline with Tween-80
[24] = dose: 240.0 mg/kg/injection, schedule: Q01DX005 (ip), vehicle: saline with Tween-80

In the case of `COc1ccc2c(c1)[nH]c1c(C)c3ccncc3c(C)c12`, the T/C (dose: 18.75 mg/kg/injection, schedule: Q04DX002 (ip), vehicle: Klucel (hydroxypropylcellulose) (HPC)) is reported as 95 % of control, the T/C (dose: 37.5 mg/kg/injection, schedule: Q04DX002 (ip), vehicle: Klucel (hydroxypropylcellulose) (HPC)) is reported as 92 % of control and the T/C (dose: 75.0 mg/kg/injection, schedule: Q04DX002 (ip), vehicle: Klucel (hydroxypropylcellulose) (HPC)) is reported as 90 % of control. For the same compound, the T/C (dose: 150.0 mg/kg/injection, schedule: Q04DX002 (ip), vehicle: Klucel (hydroxypropylcellulose) (HPC)) was 100 % of control.

In the case of `NC(=O)c1cc([N+](=O)[O-])cc([N+](=O)[O-])c1Cl`, the T/C [1] is reported as 102 % of control.

`O=[N+]([O-])c1cc2c(c([N+](=O)[O-])c1)OC(C(Cl)(Cl)Cl)OC2C(Cl)(Cl)Cl` (configuration not stated) was tested, and the T/C [2] was 107 % of control, the T/C [3] was 103 % of control and the T/C [4] was 117 % of control.

In the case of `CNC(=S)N/N=C\C(C)=N/Nc1ccc([N+](=O)[O-])cc1`, the T/C [5] is reported as 94 % of control, the T/C [6] is reported as 93 % of control and the T/C [7] is reported as 87 % of control.

`Nc1ccn(COC(CO)CO)c(=O)n1` was tested, and the T/C (dose: 100.0 mg/kg/injection, schedule: Q04DX002 (ip), vehicle: saline) was 97 % of control, the T/C (dose: 200.0 mg/kg/injection, schedule: Q04DX002 (ip), vehicle: saline) was 98 % of control and the T/C (dose: 400.0 mg/kg/injection, schedule: Q04DX002 (ip), vehicle: saline) was 103 % of control.

With `C/C(=N\N)c1cnc(NN)nc1C` the T/C (dose: 7.5 mg/kg/injection, schedule: Q01DX005 (ip), vehicle: saline) was 106 % of control and the T/C (dose: 15.0 mg/kg/injection, schedule: Q01DX005 (ip), vehicle: saline) was 103 % of control.

In the case of `c1ccc2nc(NCCSSCCNc3cnc4ccccc4n3)cnc2c1`, the T/C [8] is reported as 86 % of control, the T/C [9] is reported as 86 % of control and the T/C (dose: 400.0 mg/kg/injection, schedule: Q01DX009 (ip), vehicle: saline with Tween-80) is reported as 86 % of control.

In the case of `O=C(OC(c1ccccc1)c1ccccc1)c1ccc([N+](=O)[O-])cc1`, the T/C [10] is reported as 101 % of control, the T/C [8] is reported as 106 % of control and the T/C [9] is reported as 108 % of control.

In the case of `COc1ccccc1-c1cn(O)c2nc(=N)nc(N)c-2n1`, the T/C (dose: 50.0 mg/kg/injection, schedule: Q04DX003 (ip), vehicle: saline with Tween-80) is reported as 91 % of control, the T/C (dose: 100.0 mg/kg/injection, schedule: Q04DX003 (ip), vehicle: saline with Tween-80) is reported as 89 % of control and the T/C (dose: 200.0 mg/kg/injection, schedule: Q04DX003 (ip), vehicle: saline with Tween-80) is reported as 99 % of control. For the same compound, the T/C (dose: 400.0 mg/kg/injection, schedule: Q04DX003 (ip), vehicle: saline with Tween-80) was 107 % of control.

With `CP1(=O)CC23CCCCC2(C1)O3` (configuration not stated) the T/C [11] was 109 % of control, the T/C [12] was 104 % of control and the T/C [13] was 109 % of control.

With `CCS(=O)C(F)(F)C(F)Cl` (configuration not stated) the T/C [14] was 97 % of control, the T/C [15] was 100 % of control and the T/C [16] was 100 % of control.

In the case of `COc1cc([N+](=O)[O-])ccc1NC(=O)Nc1nccs1`, the T/C [10] is reported as 93 % of control, the T/C [8] is reported as 101 % of control and the T/C [9] is reported as 99 % of control.

In the case of `COc1ccc(C2c3cc4c(cc3OC3(N5CCCC5)CCCCC23)OCO4)c(OC)c1` (configuration not stated), the T/C [17] is reported as 87 % of control, the T/C [18] is reported as 90 % of control and the T/C [19] is reported as 91 % of control.

With `CCC12NC(=O)NC1(C)NC(=O)N2` (configuration not stated) the T/C (dose: 6.25 mg/kg/injection, schedule: Q01DX009 (ip), vehicle: saline with Tween-80) was 91 % of control, the T/C [20] was 91 % of control and the T/C (dose: 16.5 mg/kg/injection, schedule: Q01DX009 (ip), vehicle: saline with Tween-80) was 100 % of control.

In the case of `O=C(O)c1cc2ccc3cccc4ccc(c1)c2c34`, the T/C [14] is reported as 96 % of control and the T/C [15] is reported as 102 % of control.

With `CCSC(=O)c1cc(C(=O)SCC)cc(C(C)(C)C)c1` the T/C (dose: 25.0 mg/kg/injection, schedule: Q01DX009 (ip), vehicle: saline) was 100 % of control and 105 % of control, the T/C [10] was 100 % of control and the T/C [5] was 98 % of control and 95 % of control. For the same compound, the T/C [8] was 114 % of control, the T/C [6] was 98 % of control and 101 % of control and the T/C [9] was 124 % of control. The T/C [7] was 107 % of control and 97 % of control.

For `CC(O)C(N)C(=O)O` (configuration not stated), the T/C (dose: 50.0 mg/kg/injection, schedule: Q01DX005 (ip), vehicle: saline) was 104 % of control, the T/C [5] was 103 % of control and the T/C (dose: 100.0 mg/kg/injection, schedule: Q01DX005 (ip), vehicle: saline) was 100 % of control and 108 % of control. The T/C [6] was 105 % of control, the T/C (dose: 200.0 mg/kg/injection, schedule: Q01DX005 (ip), vehicle: saline) was 100 % of control and 103 % of control and the T/C [7] was 102 % of control.

`CC(=O)O.CC(=O)O.CC(=O)O.CC(=O)O.O=C(O)C1C[N-]CC(C(=O)O)C1.O=C(O)C1C[N-]CC(C(=O)O)C1.[Cu+].[Cu+]` (configuration not stated) was tested, and the T/C (dose: 3.12 mg/kg/injection, schedule: Q01DX005 (ip), vehicle: suspension in saline) was 95 % of control, the T/C (dose: 6.25 mg/kg/injection, schedule: Q01DX005 (ip), vehicle: suspension in saline) was 99 % of control and the T/C (dose: 12.5 mg/kg/injection, schedule: Q01DX005 (ip), vehicle: suspension in saline) was 94 % of control.

`Clc1ccc(Cl)c(NNc2cc(Cl)ccc2Cl)c1` was tested, and the T/C [21] was 96 % of control, the T/C [11] was 91 % of control and the T/C [12] was 87 % of control. The T/C [13] was 102 % of control.

For `Oc1c(-c2ccccc2)nc2cnccn12`, the T/C [22] was 100 % of control, the T/C [23] was 107 % of control and the T/C [24] was 107 % of control.

With `CCOC(=O)c1ccc(Nc2nc(NNC(=O)c3ccncc3)nc(Nc3ccc(C)cc3)n2)cc1` the T/C [22] was 99 % of control, the T/C [23] was 99 % of control and the T/C [24] was 99 % of control.

For `CCOc1ccc(-n2c(O)c(N=Nc3ccccc3OC)sc2=S)cc1`, the T/C [2] was 97 % of control, the T/C [3] was 93 % of control and the T/C [4] was 95 % of control.

With `N#CCCN(CCC#N)c1ccc(/C=C2\C(=O)N(c3ccc(S(=O)(=O)O)cc3)N=C2C(=O)O)cc1` the T/C [22] was 102 % of control, the T/C [23] was 94 % of control and the T/C [24] was 105 % of control.

For `O=C(NC(CO)C(=O)NC(Cc1ccc(O)cc1)C(=O)O)OCc1ccccc1` (stereo not drawn) (Cbz-Ser-Tyr-OH; configuration not given here), the T/C [2] was 98 % of control, the T/C [3] was 100 % of control and the T/C [4] was 101 % of control.

For `O=C1c2cccc3cc([N+](=O)[O-])cc(c23)C(=O)N1CCN1CCCC1`, the T/C (dose: 1.56 mg/kg/injection, schedule: Q01DX009 (ip), vehicle: saline with Tween-80) was 118 % of control and the T/C [20] was 150 % of control.

With `CCCCCCCN(CCCCCCC)CC(O)c1c(OC)c2cc(Br)ccc2c2ccc(Br)cc12` (configuration not stated) the T/C (dose: 7.5 mg/kg/injection, schedule: Q01DX009 (ip), vehicle: saline with Tween-80) was 93 % of control, the T/C (dose: 15.0 mg/kg/injection, schedule: Q01DX009 (ip), vehicle: saline with Tween-80) was 100 % of control and the T/C (dose: 30.0 mg/kg/injection, schedule: Q01DX009 (ip), vehicle: saline with Tween-80) was 93 % of control.

`CCC(=O)c1ccc(NC(=O)Nc2ncccn2)cc1` was tested, and the T/C [17] was 86 % of control, the T/C [18] was 89 % of control and the T/C [19] was 95 % of control.

In the case of `O=C(NC(O)C(Cl)(Cl)Cl)C(Cl)(Cl)Cl` (configuration not stated), the T/C [14] is reported as 100 % of control, the T/C [15] is reported as 95 % of control and the T/C [16] is reported as 107 % of control.

For `O=c1[nH]c(Sc2ccccn2)ccc1[N+](=O)[O-]`, the T/C [1] was 97 % of control, the T/C (dose: 12.5 mg/kg/injection, schedule: Q01DX009 (ip), vehicle: Klucel (hydroxypropylcellulose) (HPC)) was 91 % of control and the T/C [21] was 98 % of control and 92 % of control.

In the case of `Cc1c(C(=O)O)c(O)cc2c1C(=O)c1c(O)c(C3OC(CO)C(O)C(O)C3O)c(O)c(O)c1C2=O` (configuration not stated), the T/C (dose: 0.12 mg/kg/injection, schedule: Q01DX009 (ip), vehicle: saline) is reported as 108 % of control, the T/C (dose: 0.25 mg/kg/injection, schedule: Q01DX009 (ip), vehicle: saline) is reported as 104 % of control and the T/C (dose: 0.5 mg/kg/injection, schedule: Q01DX009 (ip), vehicle: saline) is reported as 110 % of control. The T/C (dose: 1.0 mg/kg/injection, schedule: Q01DX009 (ip), vehicle: saline) was 103 % of control and the T/C (dose: 2.0 mg/kg/injection, schedule: Q01DX009 (ip), vehicle: saline) was 101 % of control.
